The values below are quoted from earlier work in PubChem BioAssay AID1259409 (Chemical Carcinogenesis Research Information System (CCRIS), 2018).

In the data set the test system is rodent chemically induced tumor inhibition, incidence and multiplicity. Briefly: CCRIS tumor inhibitor studies. The following applies: Dose [Inhibitor]: 0.

Each structure is given as a SMILES string.

As for `S=C=NCc1cc2ccccc2c2ccccc12`, the outcome (Carcinogen: BENZO[A]PYRENE, 50-32-8, 5 UMOL IN ACETONE 4 HR PRIOR TO CARCINOGEN DOSE (STUDY DURATION: 20 WK), Route [Inhibitor]: DERMAL, Species: MOUSE, Strain/Sex: STRAIN-A/FEMALE, Target Tissue: Type of Lesion: SKIN: TUMOR, Dose [Carcinogen]: 0.1 UMOL IN ACETONE ONCE, Promoter: 12-O-TETRADECANOYLPHORBOL-13-ACETATE, 16561-29-8) was 85%, 95%, -12%, not significant at 15 wk; 95%, 95%, 0%, not significant at 20 wk.

In the case of `N#C[Se]Cc1ccccc1`, the “tumour outcome (control, treated, inhibition, significance)” value (Carcinogen: 7,12-DIMETHYLBENZ[A]ANTHRACENE, 57-97-6, 1 PPM (AS SELENIUM) IN DIET BEGINNING 2 WK PRIOR TO CARCINOGEN DOSE AND CONTINUING FOR DURATION OF STUDY (STUDY DURAT, Route [Inhibitor]: ORAL, Species: RAT, Strain/Sex: SPRAGUE-DAWLEY/FEMALE, Target Tissue: Type of Lesion: MAMMARY GLAND: ADENOCARCINOMA, Dose [Carcinogen]: 10 MG ONCE AT 55 D OF AGE, Promoter: NONE USED) is recorded as 88%, 56%, 36%, p<0.05; the “tumour outcome (control, treated, inhibition, significance)” value (Carcinogen: 7,12-DIMETHYLBENZ[A]ANTHRACENE, 57-97-6, 2 PPM (AS SELENIUM) IN DIET BEGINNING 2 WK PRIOR TO CARCINOGEN DOSE AND CONTINUING FOR DURATION OF STUDY (STUDY DURAT, Route [Inhibitor]: ORAL, Species: RAT, Strain/Sex: SPRAGUE-DAWLEY/FEMALE, Target Tissue: Type of Lesion: MAMMARY GLAND: ADENOCARCINOMA, Dose [Carcinogen]: 10 MG ONCE AT 55 D OF AGE, Promoter: NONE USED) is on record as 88%, 40%, 55%, p<0.05; the “tumour outcome (control, treated, inhibition, significance)” value (Carcinogen: 7,12-DIMETHYLBENZ[A]ANTHRACENE, 57-97-6, 3 PPM (AS SELENIUM) IN DIET BEGINNING 2 WK PRIOR TO CARCINOGEN DOSE AND CONTINUING FOR DURATION OF STUDY (STUDY DURAT, Route [Inhibitor]: ORAL, Species: RAT, Strain/Sex: SPRAGUE-DAWLEY/FEMALE, Target Tissue: Type of Lesion: MAMMARY GLAND: ADENOCARCINOMA, Dose [Carcinogen]: 10 MG ONCE AT 55 D OF AGE, Promoter: NONE USED) was 88%, 40%, 55%, p<0.05; the “tumour outcome (control, treated, inhibition, significance)” value (Carcinogen: 7,12-DIMETHYLBENZ[A]ANTHRACENE, 57-97-6, 25 PPM IN DIET BEGINNING 2 WK PRIOR TO CARCINOGEN DOSE AND CONTINUING FOR 1 WK POST CARCINOGEN DOSE (STUDY DURATION:, Route [Inhibitor]: ORAL, Species: RAT, Strain/Sex: SPRAGUE-DAWLEY/FEMALE, Target Tissue: Type of Lesion: MAMMARY GLAND: TUMOR, Dose [Carcinogen]: 10 MG IN 1 ML OLIVE OIL ONCE AT 7 WK OF AGE, Promoter: NONE USED) is 19/21 (91%), 13/21 (62%), 32%, p<0.05; the “tumour outcome (control, treated, inhibition, significance)” value (Carcinogen: BENZO[A]PYRENE, 50-32-8, 0.045 UMOL/G DIET BEGINNING 1 WK PRIOR TO CARCINOGEN TREATMENT AND CONTINUING FOR 1 WK POST CARCINOGEN TREATMENT FOLL, Route [Inhibitor]: ORAL, Species: MOUSE, Strain/Sex: CD-1/FEMALE, Target Tissue: Type of Lesion: FORESTOMACH: PAPILLOMA, Dose [Carcinogen]: 1 MG IN 0.2 ML CORN OIL 2/WK FOR 4 WK, Promoter: NONE USED) was 85%, 79%, 7%, not significant.

As to `C[C@]12CC[C@H](OS(=O)(=O)O)CC1=CC[C@@H]1[C@@H]2CC[C@]2(C)C(=O)CC[C@@H]12`, the “tumour outcome (control, treated, inhibition, significance)” value is 68%, 41%, 40%, not significant (Carcinogen: 7,12-DIMETHYLBENZ[A]ANTHRACENE, 57-97-6, 1 X 0.5 CM LONG SILASTIC IMPLANT 7 D PRIOR TO CARCINOGEN TREATMENT (STUDY DURATION: 111 D), Route [Inhibitor]: SUBCUTANEOUS IMPLANT, Species: RAT, Strain/Sex: SPRAGUE-DAWLEY/FEMALE, Target Tissue: Type of Lesion: MAMMARY GLAND: CARCINOMA, Dose [Carcinogen]: 20 MG IN 1 ML CORN OIL ADMINISTERED ON DAYS 50 TO 52 OF AGE, Promoter: NONE USED); 68%, 44%, 35%, not significant (Carcinogen: 7,12-DIMETHYLBENZ[A]ANTHRACENE, 57-97-6, 1 X 1 CM LONG SILASTIC IMPLANT 7 D PRIOR TO CARCINOGEN TREATMENT (STUDY DURATION: 111 D), Route [Inhibitor]: SUBCUTANEOUS IMPLANT, Species: RAT, Strain/Sex: SPRAGUE-DAWLEY/FEMALE, Target Tissue: Type of Lesion: MAMMARY GLAND: CARCINOMA, Dose [Carcinogen]: 20 MG IN 1 ML CORN OIL ADMINISTERED ON DAYS 50 TO 52 OF AGE, Promoter: NONE USED); 68%, 22%, 68%, p<0.01 (Carcinogen: 7,12-DIMETHYLBENZ[A]ANTHRACENE, 57-97-6, 1 X 3 CM LONG SILASTIC IMPLANT 7 D PRIOR TO CARCINOGEN TREATMENT (STUDY DURATION: 111 D), Route [Inhibitor]: SUBCUTANEOUS IMPLANT, Species: RAT, Strain/Sex: SPRAGUE-DAWLEY/FEMALE, Target Tissue: Type of Lesion: MAMMARY GLAND: CARCINOMA, Dose [Carcinogen]: 20 MG IN 1 ML CORN OIL ADMINISTERED ON DAYS 50 TO 52 OF AGE, Promoter: NONE USED); 68%, 11%, 84%, p<0.01 (Carcinogen: 7,12-DIMETHYLBENZ[A]ANTHRACENE, 57-97-6, 3 X 3 CM LONG SILASTIC IMPLANT 7 D PRIOR TO CARCINOGEN TREATMENT (STUDY DURATION: 111 D), Route [Inhibitor]: SUBCUTANEOUS IMPLANT, Species: RAT, Strain/Sex: SPRAGUE-DAWLEY/FEMALE, Target Tissue: Type of Lesion: MAMMARY GLAND: CARCINOMA, Dose [Carcinogen]: 20 MG IN 1 ML CORN OIL ADMINISTERED ON DAYS 50 TO 52 OF AGE, Promoter: NONE USED); 68%, 4%, 94%, p<0.01 (Carcinogen: 7,12-DIMETHYLBENZ[A]ANTHRACENE, 57-97-6, 6 X 3 CM LONG SILASTIC IMPLANT 7 D PRIOR TO CARCINOGEN TREATMENT (STUDY DURATION: 111 D), Route [Inhibitor]: SUBCUTANEOUS IMPLANT, Species: RAT, Strain/Sex: SPRAGUE-DAWLEY/FEMALE, Target Tissue: Type of Lesion: MAMMARY GLAND: CARCINOMA, Dose [Carcinogen]: 20 MG IN 1 ML CORN OIL ADMINISTERED ON DAYS 50 TO 52 OF AGE, Promoter: NONE USED); 8/15 (53%), 6/15 (40%), 25%, not significant (Carcinogen: N-NITROBIS(2-OXOPROPYL)AMINE, 60599-38-4, 350 MG/KG ONCE ON DAY 1 OF STUDY (STUDY DURATION: 70 D), Route [Inhibitor]: INTRAPERITONEAL, Species: HAMSTER, Strain/Sex: SYRIAN/FEMALE, Target Tissue: Type of Lesion: PANCREAS: CARCINOMA, Dose [Carcinogen]: 70 MG/KG ONCE ON DAY 1 OF STUDY THEN ONCE ON DAYS 17 AND 32 OF STUDY, Promoter: ETHIONINE, 67-21-0, METHIONINE, 63-68-3, Promoter: ETHIONINE, 67-21-0, METHIONINE, 63-68-3). Moreover, where the note is “Carcinogen: N-NITROSOBIS(2-OXOPROPYL)AMINE, 60599-38-4, 175 MG/KG ONCE ON DAY 1 OF STUDY (STUDY DURATION: 70 D), Route [Inhibitor]: INTRAPERITONEAL, Species: HAMSTER, Strain/Sex: SYRIAN/FEMALE, Target Tissue: Type of Lesion: PANCREAS: CARCINOMA, Dose [Carcinogen]: 70 MG/KG ONCE ON DAY 1 OF STUDY THEN ONCE ON DAYS 17 AND 32 OF STUDY, Promoter: ETHIONINE, 67-21-0, METHIONINE, 63-68-3, Promoter: ETHIONINE, 67-21-0, METHIONINE, 63-68-3”, the “tumour outcome (control, treated, inhibition, significance)” value is 8/15 (53%), 9/16 (56%), -7%, not significant.

Regarding `CC(C)=CCC/C(C)=C/CC/C(C)=C/CCC1(C)CCc2cc(O)ccc2O1` (stereo not given), the “tumour outcome (control, treated, inhibition, significance)” value is listed as 88%, 72%, 18%, not significant (Carcinogen: 7,12-DIMETHYLBENZ[A]ANTHRACENE, 57-97-6, 3.381 UMOL/G IN DIET FOR DURATION OF STUDY (STUDY DURATION: 18 WK), Route [Inhibitor]: ORAL, Species: RAT, Strain/Sex: SPRAGUE-DAWLEY/FEMALE, Target Tissue: Type of Lesion: MAMMARY GLAND: TUMOR, Dose [Carcinogen]: 50 MG/KG IN SESAME OIL ONCE, Promoter: NONE USED) and 60%, 76%, -27%, not significant (Carcinogen: N-METHYL-N-NITROSOUREA, 684-93-5, 3.381 UMOL/G IN DIET FOR DURATION OF STUDY (STUDY DURATION: 19 WK), Route [Inhibitor]: ORAL, Species: RAT, Strain/Sex: SPRAGUE-DAWLEY/FEMALE, Target Tissue: Type of Lesion: MAMMARY GLAND: TUMOR, Dose [Carcinogen]: 30 MG/KG IN ACIDIFIED SALINE ONCE, Promoter: NONE USED).
